For test [1], the target named is T1, Androgen Receptor, MDA-PCa-2b (AR T878A/L702H) (Homo sapiens, UniProt P10275, L702H/T878A).
T1 construct: host or cells: MDA-PCa-2b
T1 sequence (P10275 1-920 L702H/T878A): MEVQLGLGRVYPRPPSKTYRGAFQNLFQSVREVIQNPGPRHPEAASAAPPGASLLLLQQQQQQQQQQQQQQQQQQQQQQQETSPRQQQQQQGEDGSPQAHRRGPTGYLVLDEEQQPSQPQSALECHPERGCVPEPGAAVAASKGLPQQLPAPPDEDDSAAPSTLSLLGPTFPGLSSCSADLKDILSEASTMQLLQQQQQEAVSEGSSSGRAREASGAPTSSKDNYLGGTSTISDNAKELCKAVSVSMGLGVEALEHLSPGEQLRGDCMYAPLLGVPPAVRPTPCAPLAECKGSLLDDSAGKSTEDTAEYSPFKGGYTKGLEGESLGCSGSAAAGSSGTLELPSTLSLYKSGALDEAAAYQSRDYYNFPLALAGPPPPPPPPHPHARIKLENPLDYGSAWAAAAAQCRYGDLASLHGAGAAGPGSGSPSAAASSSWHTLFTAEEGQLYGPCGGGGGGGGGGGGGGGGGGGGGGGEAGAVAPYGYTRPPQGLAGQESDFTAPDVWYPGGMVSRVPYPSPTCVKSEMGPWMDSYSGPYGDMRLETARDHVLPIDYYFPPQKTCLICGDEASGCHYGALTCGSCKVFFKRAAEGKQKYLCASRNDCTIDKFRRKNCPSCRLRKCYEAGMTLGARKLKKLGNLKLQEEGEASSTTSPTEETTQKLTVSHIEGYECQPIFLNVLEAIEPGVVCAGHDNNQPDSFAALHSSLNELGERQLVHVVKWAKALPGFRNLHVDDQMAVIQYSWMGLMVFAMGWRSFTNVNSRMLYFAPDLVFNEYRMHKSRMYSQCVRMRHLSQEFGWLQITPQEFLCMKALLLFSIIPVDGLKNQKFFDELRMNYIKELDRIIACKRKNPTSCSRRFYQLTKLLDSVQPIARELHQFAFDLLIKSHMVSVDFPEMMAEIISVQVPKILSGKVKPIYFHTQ
As to the kind of experiment: Androgen Receptor Degradation-Imaging Assay, MDA-PCa-2b cell line. The format is cell-based. As to conditions: 16 hours treatment, maximum observed degradation. On the procedure:
(§1) Degradation of Androgen Receptor (AR) protein in human prostate cancer cell lines (MDA-PCa-2b (AR T878A/L702H), LNCaP (AR T878A), VCaP (AR wild type and amplified) 22RV1 (AR H875Y) and PC3 (AR negative control)) treated with AR PROTACs was quantified using immunofluorescence. Prostate cancer cells were plated (MDA-PCa-2b, and VCaP 16,000 cells/well; LNCaP and 22RV1 32,000 cells/well, and PC3 8,000 cells/well) in an optical bottom 96-well cell culture plate and allowed to attach overnight. The prostate cancer cell lines were treated for 16 hours with a 10-point 3-fold dilution series (dose range=0.02 nM to 333 nM). PC3 is included as an AR negative control and not treated with compound. Cells are fixed and permeabilized with 4% formaldehyde, blocked with 10% goat serum in immunofluorescence (IF) buffer (130 mM NaCl, 7 mM Na2HPO4, 3.5 mM NaH2PO4, 7.7 mM NaN3, 0.1% BSA, 0.2% Triton X, 0.05% Tween 20) prior to overnight incubation with rabbit antibody specific for C terminus of AR (commercially available from RevMaB Biosciences). Following washes with IF buffer, cells were incubated with fluorescent secondary antibody (Goat anti-rabbit Alexa 647; commercially available from Invitrogen) and Hoechst nuclear stain (commercially available from Themo Scientific) prior to quantification of nuclear AR levels via Opera Phenix high-content fluorescent imager using a 40× water objective. Image analysis was performed with Harmony software.
(§2) The averaged nuclear Alexa 647 median fluorescence intensity (MFI) of PC3 cells is subtracted from the nuclear Alexa 647 MFI of PROTAC treated and DMSO control treated cells. % AR remaining is calculated for PROTAC treatments as a percent of the DMSO control (MFI PROTAC treated/MFI DMSO control treated)*100). DC50 and the Dmax values, were obtained from these normalised values fitted with a 4-parameter sigmoidal response curve (Xlfit software). The DC50 is the interpolated concentration of PROTAC corresponding to 50% of the protein being degraded, and the Dmax parameter is the maximum experimentally observed degradation.

Test [2] has as its target T2, Androgen Receptor, VCaP (AR wild type and amplified) (Homo sapiens, UniProt P10275).
T2 construct: endogenous in cells; host or cells: VCaP
T2 sequence (P10275 1-920): T1 sequence (P10275 1-920 L702H/T878A) with H702L, A878T
As to the kind of experiment: Androgen Receptor Degradation-Imaging Assay, VCaP cell line. The note with it: 16 hours treatment, maximum observed degradation. The format is cell-based. The method, then: as §1, §2

Substitutions are numbered along the chain they refer to. Bounds are passed on as bounds.

One may read the Dmax as the largest share of the target that was removed. Lower therefore signals a partial loss of target.

For the compound `CC1(C)[C@H](NC(=O)c2ccc(N3CCC(CN4CCC(n5ncc6c(N7CCC(=O)NC7=O)nccc65)CC4)CC3)c(F)c2)C(C)(C)[C@H]1Oc1ccc(C#N)c2ncccc12` [Example 39, N-((1r,3r)-3-((8-Cyanoquinolin-5-yl)oxy)-2,2,4,4-tetramethylcyclobutyl)-4-(4-((4-(4-(2,4-dioxotetrahydropyrimidin-1(2H)-yl)-1H-pyrazolo[4,3-c]pyridin-1-yl)piperidin-1-yl)methyl)piperidin-1-yl)-3-fluorobenzamide], the Dmax in test [1] and in test [2] was not below 80% each time.
On to `CC1(C)[C@H](NC(=O)c2ccc(N3CCC(CN4CCC(n5ncc6c(N7CCC(=O)NC7=O)ccnc65)CC4)CC3)c(F)c2)C(C)(C)[C@H]1Oc1ccc(C#N)c2ncccc12` [Example 40, N-((1r,3r)-3-((8-Cyanoquinolin-5-yl)oxy)-2,2,4,4-tetramethylcyclobutyl)-4-(4-((4-(4-(2,4-dioxotetrahydropyrimidin-1(2H)-yl)-1H-pyrazolo[3,4-b]pyridin-1-yl)piperidin-1-yl)methyl)piperidin-1-yl)-3-fluorobenzamide], for which the Dmax in test [1] and in test [2] was not below 80% throughout.
`CC1(C)[C@H](NC(=O)c2ccc(N3CCC(CN4CCC(n5ccc6c(N7CCC(=O)NC7=O)cccc65)CC4)CC3)cc2)C(C)(C)[C@H]1Oc1ccc(C#N)c2ncccc12` [Example 43, N-((1r,3r)-3-((8-Cyanoquinolin-5-yl)oxy)-2,2,4,4-tetramethylcyclobutyl)-4-(4-((4-(4-(2,4-dioxotetrahydropyrimidin-1(2H)-yl)-1H-indol-1-yl)piperidin-1-yl)methyl)piperidin-1-yl)benzamide]: the Dmax in test [1] and in test [2] was not below 80% in each case.
As to `CC1(C)[C@H](NC(=O)c2ccc(N3CCC(CN4CCC(n5ccc6c(N7CCC(=O)NC7=O)ncnc65)CC4)CC3)c(F)c2)C(C)(C)[C@H]1Oc1ccc(C#N)c2ncccc12` [Example 47, N-((1r,3r)-3-((8-Cyanoquinolin-5-yl)oxy)-2,2,4,4-tetramethylcyclobutyl)-4-(4-((4-(4-(2,4-dioxotetrahydropyrimidin-1(2H)-yl)-7H-pyrrolo[2,3-d]pyrimidin-7-yl)piperidin-1-yl)methyl)piperidin-1-yl)-3-fluorobenzamide], the Dmax in test [1] and in test [2] was not below 80% throughout.
As to `CC1(C)[C@H](NC(=O)c2ccc(N3CCC(O)(CN4CCC(n5ncc6c(N7CCC(=O)NC7=O)cccc65)CC4)CC3)c(F)c2)C(C)(C)[C@H]1Oc1ccc(C#N)c2ncccc12` [Example 48, N-((1r,3r)-3-((8-Cyanoquinolin-5-yl)oxy)-2,2,4,4-tetramethylcyclobutyl)-4-(4-((4-(4-(2,4-dioxotetrahydropyrimidin-1(2H)-yl)-1H-indazol-1-yl)piperidin-1-yl)methyl)-4-hydroxypiperidin-1-yl)-3-fluorobenzamide], the Dmax in test [1] and in test [2] was not below 80% each time.
Consider `CC1(C)[C@H](NC(=O)c2ccc(N3CCC4(CC3)CC(N3CCC(n5ncc6c(N7CCC(=O)NC7=O)cccc65)CC3)C4)c(F)c2)C(C)(C)[C@H]1Oc1ccc(C#N)c2ncccc12` [Example 49, N-((1r,3r)-3-((8-Cyanoquinolin-5-yl)oxy)-2,2,4,4-tetramethylcyclobutyl)-4-(2-(4-(4-(2,4-dioxotetrahydropyrimidin-1(2H)-yl)-1H-indazol-1-yl)piperidin-1-yl)-7-azaspiro[3.5]nonan-7-yl)-3-fluorobenzamide], for which the Dmax in test [1] and in test [2] was not below 80% throughout.
On to `CC1(C)[C@H](NC(=O)c2ccc(N3CCC(CN4CCC(n5ncc6c(N7CCC(=O)NC7=O)c(F)ccc65)CC4)CC3)c(F)c2)C(C)(C)[C@H]1Oc1ccc(C#N)c2ncccc12` [Example 50, N-((1r,3r)-3-((8-Cyanoquinolin-5-yl)oxy)-2,2,4,4-tetramethylcyclobutyl)-4-(4-((4-(4-(2,4-dioxotetrahydropyrimidin-1(2H)-yl)-5-fluoro-1H-indazol-1-yl)piperidin-1-yl)methyl)piperidin-1-yl)-3-fluorobenzamide], for which the Dmax in test [1] and in test [2] was not below 80% in each case.
For `CC1(C)[C@H](NC(=O)c2ccc(N3CCC(CN4CCC(n5ccc6c(N7CCC(=O)NC7=O)c(F)ccc65)CC4)CC3)c(F)c2)C(C)(C)[C@H]1Oc1ccc(C#N)c2ncccc12` [Example 51, N-((1r,3r)-3-((8-Cyanoquinolin-5-yl)oxy)-2,2,4,4-tetramethylcyclobutyl)-4-(4-((4-(4-(2,4-dioxotetrahydropyrimidin-1(2H)-yl)-5-fluoro-1H-indol-1-yl)piperidin-1-yl)methyl)piperidin-1-yl)-3-fluorobenzamide], the Dmax in test [1] and in test [2] was not below 80% throughout.

The record behind these values is patent US12577231B2, “Androgen receptor PROTACS” (GlaxoSmithKline Intellectual Property Development Limited, priority 2023, dated 2026).
